Measured values: US20200121618A1, “METHODS AND COMPOSITIONS FOR TREATMENT OF INFLAMMATION AND OXIDATIVE STRESS” (BIOELECTRON TECHNOLOGY CORPORATION, priority 2017, published 2020)

Tests used:
Male C57BL/6 mice = experiment: APAP-induced liver damage in mice, serum liver enzymes ALT and AST; format: in vivo; settings: for mean serum concentration of liver enzyme (ALT) versus APAP alone: 300 mg/kg SC pre-dosing for 4 days
Protocol: Compounds described herein were tested to determine their effects on liver enzyme concentrations following introduction of APAP in sufficient quantity to cause liver trauma.
Male C57BL/6 mice (Charles River Laboratories), aged 10-12 weeks, were randomly and prospectively assigned to receive treatment with either a test compound or vehicle only. Prior to commencement of testing, the animals had been pre-dosed with a test compound of either EPI-A0001 ((RRR)-alpha tocopherol quinone) or EPI-743 (REE)-alpha tocotrienol quinone) via subcutaneous injection for 4 days at levels of 300 mg/kg body weight dose(s). One additional test compound was administrated at 4 hours prior to commencement of testing. The mice were fasted for 12 hours prior to being challenged with 300 mg/kg body weight with APAP or an equal volume of the dosing vehicle (sterile saline) via […].
The animals were each administered with a single subcutaneous (SC) 300 mg/kg body weight dose of APAP or vehicle only formulation as described herein. All animals were dosed at approximately the same time on the dosing day (±1 hour). Subcutaneous doses were administered via bolus injection between the skin and underlying layers of tissue in the scapular region on the back of each animal. The hair was not clipped from the injection site prior to dosing. The injection site was monitored for necrosis and other changes to the skin and hair.
At the time of sample collection, livers were collected for histopathology and metabolomics analyses and blood was collected for metabolomics analyses or separated into serum for the liver enzyme (AST, ALT) analyses.

[1] = system: Human Aortic Endothelial Cells (HAEC) stimulated with IL-1β; experiment: Suppression of cytokine release from IL-1β-stimulated endothelial cells (Meso Scale); format: cell-based; settings: for difference in cytokine suppression between diastereomers: A0001-RRR versus A0001-SRR; for drop in levels of IL-6: versus DMSO control and alpha-tocopherol, Donors 1 and 2
Protocol: Human Aortic Endothelial Cells (HAEC) stimulated with IL-1β result in the secretion of pro-inflammatory cytokines IL-6, IL-8 and MCP-1 as described in Wu et al., Atherosclerosis 147, 297-307 (1999). The detection of these secreted cytokines in the presence or absence of compounds was performed using Meso Scale technology.
HAEC cells from two donors (Catalog no. 2535), EGM-2 media with BulletKit supplements (Catalog no. 3162) were purchased from Lonza. IL-1β (Catalog no. 200-01B) was purchased from Peprotech. Custom MSD U-plex plates with assays to detect IL-6, IL-8 and TNF-α (Catalog no. K15067L) were purchased from Meso Scale Discovery. The cells were grown in tissue culture-treated flasks according to Lonza's instructions.
Test samples were supplied in 1.5 mL glass vials. The compounds were diluted with an appropriate volume of DMSO to result in a 10 mM stock solution. Once dissolved, they were stored at −20° C.
(§1) HAEC cells were cultured and used at passage 6. Cells were seeded in clear bottom, black wall 96-well tissue culture-treated polystyrene plates by resuspending a cell suspension at a density of 150,000 cells/mL in growth medium, then dispensing 100 microliters of cell suspension per well using an electronic multichannel pipette, corresponding to 15,000 cells/well (one plate per donor). The cell-containing plates were incubated 3 hours at 37° C. in an atmosphere with 95% humidity and 5% CO2 to allow attachment of the cells to the culture plate.
(§2) Test compounds were then added to varying final concentrations using the Tecan D300e Digital Dispenser, with subsequent back-filling with DMSO diluent to a final concentration of 0.6% (v/v). Cell plates were incubated for 20 hours at 37° C. in an atmosphere of 5% CO2 and 95% humidity.
IL-1β was then added to a final concentration of 10 nanograms/mL and then cell plates were incubated at 37° C. in an atmosphere of 5% CO2 and 95% humidity for 6 hours. Media was collected in a separate polypropylene plate, foil sealed and frozen at −80° C. for up to 96 hours.
Frozen media samples were thawed on ice and IL-6, IL-8 and TNF-alpha were measured using the Meso Scale multiplex assay according to the manufacturer's instructions. Included on each MSD plate was a dilution of IL-6, IL-8 and TNF-alpha standards to accurately quantify the secreted proteins in the media.

[2] = system: Human Aortic Endothelial Cells (HAEC); experiment: Cell viability via normalized ATP levels in HAEC; format: cell-based; settings: higher dosing levels; 6 hours; Donors 486 and 662; FIGS. 13 and 14
Protocol: as §1, §2
FIGS. 7-14 present an expanded array of pro-inflammatory cytokines, including IL-6, IL-8, and TNFa (Tumor Necrosis Factor alpha). […] In these figures, GT is gamma-tocopherol, and DT is delta-tocopherol.

[3] = Miscibility / solubility description; format: physicochemical
[4] = 4 hours, APAP 300 mg/kg, FIG. 1
[5] = 24 hours, 300 mg/kg SC pre-dosing, APAP 300 mg/kg, FIGS. 3 and 4

Structure (SMILES): CC(=O)Nc1ccc(O)cc1 [APAP, Acetaminophen, reference compound]
- mean level of ALT in serum after APAP introduction (Male C57BL/6 mice; APAP 300 mg/kg alone (G3), 4 hours, FIG. 1): approximately 3000 U/L
- mean level of AST in serum after APAP introduction (Male C57BL/6 mice; APAP 300 mg/kg alone (G3), 4 hours, FIG. 2): ~3200 U/L

Structure (SMILES): CC(C)=CCC/C(C)=C/CC/C(C)=C/CCC(C)(O)CCC1=C(C)C(=O)C(C)=C(C)C1=O (stereo not drawn) [EPI-743, REE-alpha tocotrienol quinone]
- mean serum concentration of liver enzyme (ALT) versus APAP alone (Male C57BL/6 mice; [4]): reduction in mean serum concentrations
- share of animals with AST levels near zero (Male C57BL/6 mice; 4 hours, 300 mg/kg SC pre-dosing, APAP 300 mg/kg, 3 of 10, FIG. 2): 30%
- share of animals with ALT near zero (Male C57BL/6 mice; 4 hours, 300 mg/kg SC pre-dosing, APAP 300 mg/kg, 4 of 10, FIG. 1): 40%
- individual ALT and AST data points (Male C57BL/6 mice; [5]): several data points at or near zero
- mean serum concentration level of ALT and AST versus APAP alone (G4) (Male C57BL/6 mice; [5]): reduction in mean serum concentration level

Structure (SMILES): CC1=C(C)C(=O)C(CC[C@@](C)(O)CCC[C@H](C)CCC[C@H](C)CCCC(C)C)=C(C)C1=O [A0001-SRR]
- difference in cytokine suppression between diastereomers ([1]; 6 hours, Donors 486 and 662): small variation

Structure (SMILES): CC1=C(C)C(=O)C(CCC(C)(O)CCCC(C)CCCC(C)CCCC(C)C)=C(C)C1=O (stereo not drawn) [A0001, RRR-alpha tocopherol quinone]
- mean serum concentration of liver enzyme (ALT) versus APAP alone (Male C57BL/6 mice; [4]): reduction in mean serum concentrations
- mean serum concentration level of ALT and AST versus APAP alone (G4) (Male C57BL/6 mice; [5]): reduction in mean serum concentration level
- IL-6 suppression ([1]; 7.5 μM, 6 hours IL-1β): no longer evident
- suppression of IL-6 levels ([1]; 15 μM, 6 hours IL-1β, compared with 60 μM and 30 μM): not as dramatic
- drop in levels of IL-6 ([1]; 30 μM, 6 hours IL-1β): > 50%
- drop in levels of IL-6 ([1]; 60 μM, 6 hours IL-1β): > 50%
- dose dependence of IL-6 suppression ([1]; 7.5-60 μM, 6 hours, FIGS. 5 and 6): dosing dependent effect
- difference in cytokine suppression between diastereomers ([1]; 6 hours, Donors 486 and 662): small variation
- suppression of the various cytokines (IL-6, IL-8, TNFa) ([1]; 6 hours, Donors 486 and 662, FIGS. 7-12): dose dependent suppression
- effect on cell viability via normalized ATP levels [2]: only a slight effect
- miscibility with other oils [3]: infinitely miscible
- solubility in aqueous solvents [3]: practically insoluble
